Tests used:
O4-positive cells = assay: Ex.6 IL-1β induced diffuse white matter injury mouse model: pre-oligodendrocyte maturation gene expression (qRT-PCR); format: in vivo; details: P5
Protocol: Experimental protocols were approved by the institutional guidelines of the Institut National de la Santé et de la Recherche Scientifique (Inserm, France), and met the guidelines for the United States Public Health Service's Policy on Humane Care and Use of Laboratory Animals (NIH, Bethesda, Md., USA). Experiments were performed using OF1 strain mice purchased from Charles River (L'Arbresle, France) and born in our animal facility. Animals were housed under a 12 h light-dark cycle, had access to food and water ad libitum. Sex was determined at birth and confirmed at sacrifice. To avoid any potential variability linked to sex to differences. only male pups were used. […]
Preparation of samples for quantitative reverse-transcriptase polymerase-chain reaction (qRT-PCR), primer design, and PCR protocol, were similar to that previously described (Favrais et al., 2011; Chhor et al., 2013). […] RNA quality and concentration were assessed by spectrophotometry with the Nanodrop™ apparatus (Thermoscientific, Wilmington, Del., USA). […] The relative quantities are expressed as the specific ratio between the gene of interest and Rpl13 or GAPDH. The data are presented as relative mRNA units with respect to control values (expressed as a fold-difference with respect to the mean of sham values).

[1] = Ex.4 therapeutic HIE rat model: brain weight; format: in vivo; details: PND14
Protocol: Animals were then perfused transcardially with 0.9% saline solution at 4° C., and then with 4% paraformaldehyde in a 0.1-mol/L phosphate-buffered saline solution (pH 7.4) at 4° C. The brains were quickly isolated, weighed and immersed in the same fixative solution at 4° C. for 24 hours, dehydrated with a graded series of ethanol and xylene, and embedded in paraffin.
To study the therapeutic effect of estetrol, newborn rat pups were assigned to one of the following 6 groups at postnatal day 7: sham group (n=29), vehicle group (n=20), 1 mg/kg E4 group (n=16), 5 mg/kg E4 group (n=19), 10 mg/kg day E4 (n=17) and 50 mg/kg day E4 group (n=15). At postnatal day 7 animals were anesthetized with isoflurane (induction, 3.0%; maintenance, 1.5%), and the rat pups from vehicle and E4 groups passed through surgery encompassing left common carotid artery double ligation and cut. After surgery, the pups were returned to their dams and allowed to recover for 1 hour. The pups were then placed in a humidified hypoxic in vivo cabinet (CoyLab). Hypoxia was produced by the inhalation of 11%-8% of oxygen balanced by nitrogen at decreased concentration of oxygen for 20 minutes, followed by inhalation of 8% oxygen and 92% nitrogen at constant concentration for 35 minutes. All the manipulations were performed at 37° C.
Upon retrieval from the hypoxia chamber the rat pups were injected intraperitoneally either by vehicle (vehicle group) or by E4 (1 mg/kg, 5 mg/kg, 10 mg/kg or 50 mg/kg) in accordance to the group assignment. The animals from the sham group went through similar procedures but proceeded neither left common carotid artery ligation and cut followed by hypoxia nor vehicle or estetrol administration. Rat pups recovered with their dams until being sacrificed at postnatal day 14.

In the case of C[C@]12CC[C@@H]3c4ccc(O)cc4CC[C@H]3[C@@H]1[C@@H](O)[C@@H](O)[C@@H]2O [E4, 1,3,5(10)-estratrien-3,15α,16α,17β-tetrol], the “IL-1β-induced up-regulation in ID2 expression” value (O4-positive cells; 5 mg/kg and 10 mg/kg E4 co-treatment) is reported as “prevented”, the “expression of Hey2” value (O4-positive cells; IL-1β+E4 5 mg/kg, vs IL-1β alone) is reported as “trend to up-regulation” and the brain weight ([1]; 1 mg/kg E4 single ip dose after HI) is reported as 1.099 ± 0.037 g. The brain weight ([1]; 5 mg/kg E4 single ip dose after HI) was 1.06 ± 0.035 g, the brain weight ([1]; 10 mg/kg E4 single ip dose after HI) was 1.12 ± 0.33 g and the brain weight ([1]; 50 mg/kg E4 single ip dose after HI) was 1.163 ± 0.025 g.
